Data reported in patent US20050037446A1, “Agents that recognize src when phosphorylated at serine 17” (priority 2001, published 2005).

What was measured:
Format in all cases: cell-based
Cb1 = Cb1 tyrosine phosphorylation (immunoprecipitation/Western blot), NIH3T3 cells; settings: 10 μM, 20 minutes
Experimental: To determine the role of C3G and its complex in Rap1 activation, NIH3T3 cells were grown and treated for 20 minutes in the presence or absence of H89 (10 μM) or PP2 [AG1879; 4-amino-5-(4-chlorophenyl)-7-(t-butyl)pyazolo[3,4-d]pyrimidine, LY294002 [2-(4-Morpholinyl)-8-phenyl-4H-1-bemzopyran-4-one] (10 μM, Cal Biochem), treated with Forskolin (10 μM, Cal Biochem) for five minutes, and cell lysates prepared, as described above. Endogenous Cb1 was immunoprecipitated using a Cb1 antibody (Santa Cruz Biotechnology Inc.) from cell lysates and analyzed by Western blot for tyrosine phosphorylation, using a pTyr antibody (Santa Cruz Biotechnology Inc.) as described above. Briefly, for immunoprecipitation of Cb1, equal amounts of cell lysate per condition were precipitated at 4° C. for 4 to 6 hours in lysis buffer. Proteins were resolved by SDS-PAGE, blotted onto PVDF membranes and probed with the appropriate antibodies. All Western blots and immunoprecipitations were performed at least three times.

Rap1 = Rap1 activation affinity assay (GST-RalGDS pull-down), NIH3T3 cells
Experimental: NIH3T3 cells (American Type Culture Collection, ATCC, Manassas, Va.) were cultured in Dulbecco-Modified Eagle Medium (DMEM) plus 10% fetal calf serum, penicillin/streptomycin, and L-glutamine at 37° C. in 5% CO2. Cells were maintained in serum-free DMEM for 16 hours at 37° C. in 5% CO2 prior to treatment. NIH3T3 cells were trasfected with Flag-Rap1 (see Vossler et al., Cell, 89:73-82, 1997) or stimulated with Forskolin (10 μM, Cal Biochem, Riverside, Calif.) for five minutes. Forskolin treated cells received either a pretreatment or post-treatment with 10 μM N-[2(Bromocimamylamino) ethyl]-5-isoquinolinesulfonamide (H89) (Cal Biochem, Riverside, Calif.) for 20 minutes.
Cells were co-transfected with Flag-Rap1 at seventy to eighty percent confluency with the cDNA using a Lipofectamine 2000 kit (Gibco BRL, Rockville, Md.) according to the manufacturer's instructions. The control vector, pcDNA3 (Invitrogen Corp.), was included in each set of transfections to assure that each plate received the same amount of DNA. Following transfection, cells were allowed to recover in serum containing media for 24 hours. Cells were then starved overnight in serum-free DMEM before treatment and lysis.
After treatment, cells were lysed in ice-cold lysis buffer (50 mM Tris-HCL (pH 8.0), 10% glycerol, 1% nonidet P40, 200 mM NaCl, 2.5 mM MgCl2, 1 mM phenylmethylsulfonyl fluoride, 1 μM leupeptin, 10 μln soybean trypsin inhibitor, 10 mM NaF, 0.1 μM aprotinin, and 1 mM NaVO4). Nuclei and cytoskeleton were removed from equivalent amounts of lysate by centrifugation at 5,000 rpm for five minutes. The supernatant was centrifuged at 100,000×g for one hour at 4° C. and, the resultant membrane was resuspended in cold lysis buffer. Aliquots of the membrane fraction were analyzed for the presence of C3G by Western blotting. The cytosolic or membrane fractions of treated or untreated cells were mixed with equivalent amounts of lysates from untreated Flag-Rap1 transfected cells. The mixture was incubated at 37° C. for five minutes and equal amounts of lysate were analyzed using the Rap1 activation assay to monitor Flag-Rap 1 activation by Gst-RalGDS.
The Rap1 activation affinity assay was performed as follows. A GST fusion protein of the Rap1-binding domain of RalGDS (GST-RalGDS, Dr. Bos, Utrecht University, The Netherlands) was expressed in E. coli following induction by isopropyl-1thio-β-D-galactopyranoside. Active Rap1 was isolated as previously described (Franke et al., EMBO J. 16:252-9, 1997). Briefly, equivalent amounts of supernatants (500 μg) were incubated with GST-RalGDS-Rap1 binding domain coupled to glutathione beads. Following a one hour incubation at 4° C., beads were pelleted and rinsed threes times with ice-cold lysis buffer. […] Proteins were detected using enhanced chemiluminescence.

AKT = AKT phosphothreonine 308 Western blot, Hek293 cells
Experimental: To determine the physiological role of Ras signaling in Hek293 cells, a well-known Ras effector, phosphoinositol-3 kinase (PI3-K) and its target, AKT (a serine/threonine kinase which participates in a variety of cellular effects including cell survival, adhesion, and cell growth) were examined as follows. Hek293 cells received no pretreatment or were pretreated for 20 minutes with H89 (10 μM), PP2 (10 μM), or LY (10 μM), and stimulated for 5 minutes with isoproterenol. Cell lysates were analyzed by Western blotting for phospho-AKT (PAKT 308, Cell Signaling, Beverly, Mass.) or total AKT (Cell Signaling) as a control. Isoproterenol activated AKT, as measured by phosphorylation-specific antibodies to phosphothreonine 308 (AKT). This phosphorylation required P13-K as LY blocked isoproterenol-induced phosphorylation at this site. Moreover, this phosphorylation was blocked by PP2, but not H89, indicating the requirement of SFKs, but not PKA. Therefore, isoproterenol's activation of AKT proceeds through Src and PI3-K but not PKA.
Similar amounts of cell lysate (determined by protein concentrations) were immunoprecipitated using an agarose-coupled HA antibody followed by Western blotting for phospho-AKT (PHA-AKT 308) or total HA-AKT with an HA antibody (12CA5, Boehringer Mannheim, Indianapolis, Ind.).

| Structure (SMILES) | Effect on Forskolin-stimulated Cb1 tyrosine phosphorylation (Cb1) | Effect on Forskolin activation of Flag-Rap1 in trans (Rap1; added ten minutes after Forskolin) | Effect on Forskolin activation of Flag-Rap1 in trans (Rap1; pretreatment, 10 μM, 20 minutes) | Effect of inhibitor on isoproterenol-induced AKT phosphorylation (AKT; 10 μM, 20 minutes pretreatment) | Activation of AKT (phosphothreonine 308) (AKT; 5 minutes) | Activation of endogenous Rap1 (Rap1; NIH3T3 cells, 10 μM, five minutes) |
| --- | --- | --- | --- | --- | --- | --- |
| O=S(=O)(NCCNC/C=C/c1ccc(Br)cc1)c1cccc2cnccc12 [H89, N-[2(Bromocimamylamino)ethyl]-5-isoquinolinesulfonamide] | inhibited | still able to activate Flag-Rap1 in trans | blocked | – | – | – |
| CC(C)(C)n1nc(-c2ccc(Cl)cc2)c2c(N)ncnc21 [PP2, 4-amino-5-(4-chlorophenyl)-7-(t-butyl)pyazolo[3,4-d]pyrimidine] | inhibited | – | – | blocked | – | – |
| CC(C)NCC(O)c1ccc(O)c(O)c1 (stereo not shown) [isoproterenol] | – | – | – | – | activated AKT | activated Rap1 |
